Reference: patent US20230339939A1 (Bayer Aktiengesellschaft, priority 2020, published 2023)
pIC50: −log10 of the molar value. Where two headings read alike, the source gives them in different places.

Tests used:
[1] = target: CSNK1A1 (Homo sapiens (Human), UniProt P48729); assay: CSNK1A1 Assay 2 (ADP-Glo, 1 μM ATP, substrate biotin-Ahx-KRRRAL-pS-VASLPGL); format: biochemical; details: median, read-out: CSNK1A1 Assay 2 IC50 [mol/l] (median)
Method: CSNK1A1-inhibitory activity of compounds of the present invention in presence of 1 μM adenosine-tri-phosphate (ATP) was quantified employing the CSNK1A1 assay as described in the following paragraphs. In essence, the enzyme activity is measured by quantification of the adenosine-di-phosphate (ADP), which is generated as a co-product of the enzyme reaction, via the “ADP-Glo™ Kinase Assay” kit from the company Promega. This detection system works as follows: In a first step the ATP not consumed in the kinase reaction is quantitatively converted to cAMP employing an adenylate cyclase (“ADP-Glo-reagent”), then the adenylate cyclase is stopped and the ADP generated in the kinase reaction converted to ATP which generates in a luciferase-based reaction a glow-luminescence signal (“Kinase Detection Reagent”).
Recombinant fusion protein of N-terminal Glutathion-S-Transferase (GST) and full-length human CSNK1A1, expressed by baculovirus infected insect cells and purified via Glutathion affinity chromatography, was purchased from Life Technologies (product no. PV4174) and used as enzyme. As substrate for the kinase reaction the biotinylated peptide biotin-Ahx-KRRRAL-pS-VASLPGL (C-terminus in amide form) was used which can be purchased e.g. from the company Biosyntan (Berlin-Buch, Germany).
For the assay 50 nl of a 100 fold concentrated solution of the test compound in DMSO was pipetted into a white 1536-well microtiter plate (Greiner Bio-One, Frickenhausen, Germany), 2 μL of a solution of CSNK1A1 in aqueous assay buffer [50 mM HEPES pH 7.5, 10% (v/v) glycerol, 10 mM MgCl2, 50 mM NaCl, 1 mM dithiothreitol, 0.01% (w/v) bovine serum albumin, 0.01% (v/v) Triton X-100] were added and the mixture was incubated for 15 min at 22° C. to allow pre-binding of the test compounds to the enzyme before the start of the kinase reaction. […] The concentration of CSNK1A1 was adjusted depending of the activity of the enzyme lot and was chosen appropriate to have the assay in the linear range, a typical concentrations are about 0.0375 ng/μL. The reaction was stopped by the addition of 2.5 μL of “ADP-Glo-reagent” (1:1.5 fold diluted with water) and the resulting mixture was incubated at 22° C. for 1 h to convert the ATP not consumed in the kinase reaction completely […]. Subsequently 2.5 μL of the “kinase detection reagent” (1.2 fold more concentrated than recommended by the producer) were added, the resulting mixture was incubated at 22° C. for 1 h and then the luminescence measured with a suitable measurement instrument (e.g. Viewlux™ from Perkin-Elmer). The amount of emitted light was taken as a measure for the amount of ADP generated and thereby for the activity of the CSNK1A1.

[2] = target: wild-type Epidermal Growth Factor Receptor (EGFR) (Homo sapiens (Human), UniProt P00533); assay: WT-EGFR Kinase Assay (TR-FRET, 2 mM ATP); format: biochemical
wild-type Epidermal Growth Factor Receptor (EGFR), sequence (P00533 669-1210): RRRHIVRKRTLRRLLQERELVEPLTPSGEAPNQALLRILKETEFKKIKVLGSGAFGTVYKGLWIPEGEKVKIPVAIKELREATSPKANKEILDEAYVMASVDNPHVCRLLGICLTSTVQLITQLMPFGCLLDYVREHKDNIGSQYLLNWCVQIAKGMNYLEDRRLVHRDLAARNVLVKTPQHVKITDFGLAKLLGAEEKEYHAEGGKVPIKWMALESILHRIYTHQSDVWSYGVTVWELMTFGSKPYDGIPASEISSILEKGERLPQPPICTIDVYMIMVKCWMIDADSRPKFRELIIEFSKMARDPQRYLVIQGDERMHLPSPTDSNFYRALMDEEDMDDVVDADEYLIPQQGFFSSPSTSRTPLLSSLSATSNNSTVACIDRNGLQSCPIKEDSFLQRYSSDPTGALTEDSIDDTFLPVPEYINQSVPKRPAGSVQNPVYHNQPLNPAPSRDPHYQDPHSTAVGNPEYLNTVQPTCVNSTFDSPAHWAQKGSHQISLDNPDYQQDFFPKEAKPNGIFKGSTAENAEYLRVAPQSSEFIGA
Source text: Inhibitory activity of compounds of the present invention against wild-type Epidermal Growth Factor Receptor (EGFR) was quantified employing the TR-FRET based EGFR assay as described in the following paragraphs.
Recombinant fusion protein of N-terminal Glutathion-S-Transferase (GST) and a fragment of human EGFR (amino acids R669 to A1210), expressed in Sf9 insect cells and purified via affinity chromatography using Glutathion Sepharose as described above, was used as kinase. As substrate for the kinase reaction the biotinylated peptide biotin-Ahx-[…] (C-terminus in amide form) was used which can be purchased e.g. form the company Biosynthan GmbH (Berlin-Buch, Germany).
For the assay 50 nl of a 100 fold concentrated solution of the test compound in DMSO was pipetted into either a black low volume 384 well microtiter plate or a black 1536 well microtiter plate (both Greiner Bio-One, Frickenhausen, Germany), 2 μL of a solution of EGFR in aqueous assay buffer [50 mM Hepes pH 7.0, 10 mM MgCl2, 1 mM dithiothreitol, 0.5 mM EGTA, 0.3 mM activated sodium ortho-vanadate, 0.005% (w/v) bovine serum albumin, 0.005% (v/v) Tween-20] were added and the mixture was incubated for 15 min at 22° C. to allow pre-binding of the test compounds to the enzyme before the start of the kinase reaction. […] The concentration of EGFR was adjusted depending of the activity of the enzyme lot and was chosen appropriate to have the assay in the linear range, typical concentration was 7.6 pg/μL. The reaction was stopped by the addition of 3 μL of a solution of HTRF detection reagents (83.3 nM streptavidine-XL665 [Cisbio Bioassays, Codolet, France] and 1.67 nM PT66-Tb-Cryptate, a terbium-cryptate labelled anti-phospho-tyrosine antibody from Cisbio Bioassays [instead of the PT66-Tb-cryptate PT66-Eu-Chelate from Perkin Elmer can also be used]) in an aqueous EDTA-solution (133.3 mM EDTA, 0.2% (w/v) bovine serum albumin in 50 mM HEPES pH 7.5).
The resulting mixture was incubated 1 h at 22° C. to allow the binding of the biotinylated phosphorylated peptide to the streptavidine-XL665 and the PT66-Tb-Cryptate. Subsequently the amount of phosphorylated substrate was evaluated by measurement of the resonance energy transfer from the PT66-Tb-Cryptate to the streptavidine-XL665. Therefore, the fluorescence emissions at 620 nm and 665 nm after excitation at 337 nm were measured in a HTRF reader, e.g. a Pherastar (BMG Labtechnologies, Offenburg, Germany) or a Viewlux (Perkin-Elmer). The ratio of the emissions at 665 nm and at 622 nm was taken as the measure for the amount of phosphorylated substrate.

[3] = read-out: EGFR Wildtype 2 mM ATP IC50 [mol/l] (median)

CSNK1A1, sequence (P48729 whole entry): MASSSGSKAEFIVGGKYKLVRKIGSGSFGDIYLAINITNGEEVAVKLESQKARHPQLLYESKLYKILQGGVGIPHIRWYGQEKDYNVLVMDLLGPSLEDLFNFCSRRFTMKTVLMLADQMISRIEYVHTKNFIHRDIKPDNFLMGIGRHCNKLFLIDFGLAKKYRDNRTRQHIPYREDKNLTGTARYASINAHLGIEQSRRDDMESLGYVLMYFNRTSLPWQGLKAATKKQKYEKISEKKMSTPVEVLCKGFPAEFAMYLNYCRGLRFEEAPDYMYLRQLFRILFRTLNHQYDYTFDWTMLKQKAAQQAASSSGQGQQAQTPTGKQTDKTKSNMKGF

| SMILES | pIC50 [1] | pIC50 [2, 3] | pIC50 ([2]; median) |
| --- | --- | --- | --- |
| O=C(Cc1ccc(F)cc1)Nc1cc(-c2[nH]c3cccnc3c2-c2cccc(F)c2)ccn1 [Example 15, 2-(4-fluorophenyl)-N-{4-[3-(3-fluorophenyl)-1H-pyrrolo[3,2-b]pyridin-2-yl]pyridin-2-yl}acetamide] | 8.73 | < 4.70 |  |
| CC(C(=O)Nc1cc(-c2[nH]c3ccc(F)nc3c2-c2ccccn2)ccn1)c1ccc(F)cc1 (single isomer, unassigned; (+)) [Example 3, (+)-2-(4-fluorophenyl)-N-{4-[5-fluoro-3-(pyridin-2-yl)-1H-pyrrolo[3,2-b]pyridin-2-yl]pyridin-2-yl}propanamide] | 9.00 | < 4.70 |  |
| COCCc1ccnc2c(-c3ccccn3)c(-c3ccnc(NC(=O)Cc4ccc(F)cc4)c3)[nH]c12 [Example 36, 2-(4-fluorophenyl)-N-{4-[7-(2-methoxyethyl)-3-(pyridin-2-yl)-1H-pyrrolo[3,2-b]pyridin-2-yl]pyridin-2-yl}acetamide] | 7.83 | < 4.70 |  |
| O=C(Cc1ccccc1)Nc1cc(-c2[nH]c3cccnc3c2-c2ccccn2)ccn1 [Example 46, 2-phenyl-N-(4-(3-(pyridin-2-yl)-1H-pyrrolo[3,2-b]pyridin-2-yl)pyridin-2-yl)acetamide] | 8.65 | < 4.70 |  |
| O=C(Cc1ccc(F)cc1)Nc1cc(-c2[nH]c3c(C4CC4)ccnc3c2-c2ccccn2)ccn1 [Example 35, N-{4-[7-cyclopropyl-3-(pyridin-2-yl)-1H-pyrrolo[3,2-b]pyridin-2-yl]pyridin-2-yl}-2-(4-fluorophenyl)acetamide] | 8.55 | < 4.70 |  |
| O=C(Cc1ccc(F)cc1)Nc1cc(-c2[nH]c3cccnc3c2-c2ccccn2)ccn1 [Example 5, 2-(4-fluorophenyl)-N-{4-[3-(pyridin-2-yl)-1H-pyrrolo[3,2-b]pyridin-2-yl]pyridin-2-yl}acetamide] | 8.97 | < 4.70 |  |
| COc1ccc2[nH]c(-c3ccnc(NC(=O)Cc4ccc(F)cc4)c3)c(-c3ccccn3)c2n1 [Example 32, 2-(4-fluorophenyl)-N-{4-[5-methoxy-3-(pyridin-2-yl)-1H-pyrrolo[3,2-b]pyridin-2-yl]pyridin-2-yl}acetamide] | 8.60 | < 4.70 |  |
| O=C(Cc1ccc(F)cc1)Nc1cc(-c2[nH]c3cccnc3c2-c2ccccc2)ccn1 [Example 14, 2-(4-fluorophenyl)-N-[4-(3-phenyl-1H-pyrrolo[3,2-b]pyridin-2-yl)pyridin-2-yl]acetamide] | 8.98 | 4.72 | < 4.70 |
| O=C(Cc1ccc(F)cc1)Nc1cc(-c2[nH]c3cccnc3c2-c2ccc(Cl)s2)ccn1 [Example 17, N-{4-[3-(5-chlorothiophen-2-yl)-1H-pyrrolo[3,2-b]pyridin-2-yl]pyridin-2-yl}-2-(4-fluorophenyl)acetamide] | 8.73 | < 4.70 |  |
| O=C(Cc1ccc(F)cc1)Nc1cc(-c2[nH]c3c(Cl)ccnc3c2-c2ccccn2)ccn1 [Example 22, N-{4-[7-chloro-3-(pyridin-2-yl)-1H-pyrrolo[3,2-b]pyridin-2-yl]pyridin-2-yl}-2-(4-fluorophenyl)acetamide] | 8.80 | < 4.70 |  |
| O=C(Cc1ccc(F)cc1)Nc1cc(-c2[nH]c3cccnc3c2-c2ncccn2)ccn1 [Example 51, 2-(4-fluorophenyl)-N-{4-[3-(pyrimidin-2-yl)-1H-pyrrolo[3,2-b]pyridin-2-yl]pyridin-2-yl}acetamide] | 8.10 | < 4.70 |  |
| CC(C(=O)Nc1cc(-c2[nH]c3ccc(F)nc3c2-c2ccccn2)ccn1)c1ccc(F)cc1 (single isomer, unassigned; (-)) [Example 2, (−)-2-(4-fluorophenyl)-N-{4-[5-fluoro-3-(pyridin-2-yl)-1H-pyrrolo[3,2-b]pyridin-2-yl]pyridin-2-yl}propanamide] | 7.96 |  | < 4.70 |
